In assay [1] the target is EGFR-WT (Homo sapiens (Human), UniProt P00533). The assay is described as follows: Omnia biochemical assay, EGFR (WT) active enzyme. To be noted: [EGFR-WT]=5 nM, [ATP]=15 uM, 30 min pre-incubation. From the text: (§1) Omnia Assay Protocol for Potency Assessment Against EGFR (WT) and EGFR (T790M/L858R) Active Enzymes
(§2) Below describes the biochemical assay protocol using EGFR-WT and EGFR-T790M/L858R.
(§3) The mechanics of the assay platform are best described by the vendor (Invitrogen, Carlsbad, Calif.) on their website at the following URL: www.invitrogen.com/content.cfm?pageid=11338 or www.invitrogen.com/site/us/en/home/Pro ducts-and-Services/Applications/Drug-Discovery/Target-and-Lead-Identification-and-Validation/KinaseBiology/KB-Misc/Biochemical-Assays/Omnia-Kinase-Assays.html.
(§4) Briefly, 10× stocks of EGFR-WT (PV3872) from Invitrogen and EGFR-T790M/L858R (40350) from BPS Bioscience, San Diego, Calif., 1.13×ATP (AS001A) and appropriate Tyr-Sox conjugated peptide substrates (KCZ1001) were prepared in 1× kinase reaction buffer consisting of 20 mM Tris, pH 7.5, 5 mM MgCl2, 1 mM EGTA, 5 mM β-glycerophosphate, 5% glycerol (10× stock, KB002A) and 0.2 mM DTT (DS001A). 5 μL of each enzyme were pre-incubated in a Corning (#3574) 384-well, white, non-binding surface microtiter plate (Corning, N.Y.) for 30 min. at 25° C. with a 0.5 μL volume of 50% DMSO and serially diluted compounds prepared in 50% DMSO. Kinase reactions were started with the addition of 45 μL of the ATP/Tyr-Sox peptide substrate mix and monitored every 71 seconds for 60 minutes at λex360/λem485 in a Synergy^4 plate reader from BioTek (Winooski, Vt.). At the conclusion of each assay, progress curves from each well were examined for linear reaction kinetics and fit statistics (R^2, 95% confidence interval, absolute sum of squares). Initial velocity (0 minutes to ˜30 minutes) from each reaction was determined from the slope of a plot of relative fluorescence units vs time (minutes) and then plotted against inhibitor concentration to estimate IC50 from log [Inhibitor] vs Response, Variable Slope model in GraphPad Prism from GraphPad Software (San Diego, Calif.).
(§5) [EGFR-WT]=5 nM, [ATP]=15 uM, [Y12-Sox]=5 uM (ATP KMapp˜12 uM); and [EGFR-T790M/L858R]=2.5 nM, [ATP]=20 uM, [Y12-Sox]=5 uM (ATP KMapp˜20 uM).

Assay [2] addresses EGFR-T790M/L858R (Homo sapiens (Human), UniProt P00533, L858R/T790M). Put plainly: Omnia biochemical assay, EGFR (T790M/L858R) active enzyme. To be noted: for IC50: [EGFR-T790M/L858R]=2.5 nM, [ATP]=20 uM, 30 min pre-incubation; for Ratio WT/mutant: biochemical IC50, WT EGFR vs EGFR (T790M/L858R).
Excerpt: as §1, §2, §3, §4, §5

Assay [3] concerns WT-EGFR A431 cells. Put plainly: Cell proliferation (CellTiter Glo, 72 hr) in A431 cells. The class given is cell-based. The note with it: Homo sapiens, A-431. The method, then: (§6) A431 human epidermoid carcinoma, H1975 human NSCLC and HCC827 human NSCLC adenocarcinoma cells were obtained from the American Type Culture Center (Manassas, Va.). A431 cells were grown in DMEM (Invitrogen, Carlsbad, Calif.) supplemented with 10% FBS (HyClone, South Logan, Utah) and 1% Penicillin-Streptomycin (P/S, Lonza, Walkersville, Md.). H1975 and HCC827 cells were grown in complete RPMI 1640 (Invitrogen) supplemented with 10% FBS and 1% P/S. All cells were maintained and propagated as monolayer cultures at 37° C. in a humidified 5% CO2 incubator.
(§7) Cells were plated in Growth Media supplemented with 5% FBS and 1% P/S at a density of 3,000 cells per well in 96 well tissue culture plates (Corning). Cells were allowed to settle down for 4 hr and then treated with 5, 1.25, 0.31, 0.078, 0.020 or 0.005 μM test compound for 72 hr. Cell viability was determined by CellTiter Glo (Promega, Madison, Wis.) and results were converted to cell numbers using a standard curve. Growth inhibition (GI50) values were determined by Graph Pad Prism.

The subject of assay [4] is H1975 (double mutation L858R/T790M) cells. The assay is described as follows: Cell proliferation (CellTiter Glo, 72 hr) in H1975 cells. The class given is cell-based, human. The note with it: for GI50: Homo sapiens, NCI-H1975, H1975 cells, 72 hr; for Ratio WT/mutant (H1975): proliferation GI50, WT EGFR (A431) vs H1975. How it is done: as §6, §7
(In general: ATP-based viability assays read luminescence as a measure of living cells.)

The test system of assay [5] is HCC827 (delE746-A750 deletion mutation) cells. Put plainly: Cell proliferation (CellTiter Glo, 72 hr) in HCC827 cells. The class given is cell-based, human. To be noted: for GI50: Homo sapiens, HCC827 cells, 72 hr; for Ratio WT/mutant (HCC827): proliferation GI50, WT EGFR (A431) vs HCC827. The method, then:
as §6, §7

Assay [6] addresses WT EGFR (A431 cells) (Homo sapiens (Human), UniProt P00533). The assay is described as follows: Phospho-EGFR signaling (immunoblotting, 1 hr) in A431 cells. The class given is cell-based. To be noted: 1 hr compound, EGF stimulated, phospho-EGFR (Y1068). The method, then:
as §6
(§8) All primary antibodies were obtained from Cell Signaling (Danvers, Mass.) and used at 1:1000. Secondary antibodies were used at 1:10,000. Goat anti-mouse IgG IRDye 800CW antibody was obtained from LiCor Biosciences (Lincoln, Nebr.) and goat anti-rabbit IgG Alexa Fluor 680 was obtained from Invitrogen.
(§9) Cells were grown in 12-well plates (Corning, Coring, N.Y.) to 90% confluence and then incubated in low-serum (0.1% FBS) media for 16-18 hr. […]
(§10) Lysate protein concentrations were determined by BCA Assay (Pierce, Rockford, Ill.) and 50 ug of each lysate was separated by 4-12% gradient SDS-PAGE (Invitrogen), transferred to nitrocellulose membrane (Biorad, Hercules, Calif.) and probed with specific antibodies. Phospho-protein signals were quantitated using Odyssey Infrared Imaging (Li-Cor Biosciences). […]

Assay [7] concerns the target EGFR double mutation L858R/T790M (H1975 cells) (Homo sapiens (Human), UniProt P00533, L858R/T790M). The assay is described as follows: Phospho-EGFR signaling (immunoblotting, 1 hr) in H1975 cells. The class given is cell-based. To be noted: for EC50: H1975 cells, 1 hr compound, phospho-EGFR (Y1068); for Ratio WT/mutant (H1975): signaling EC50, WT EGFR (A431) vs H1975. The method, then:
as §6, §8
Cells were grown in 12-well plates (Corning, Coring, N.Y.) to 90% confluence and then incubated in low-serum (0.1% FBS) media for 16-18 hr. Cells were then treated with 5, 1.25, 0.31, 0.078, 0.020 or 0.005 μM test compound in low-serum (0.1% FBS) media for 1 hr. A431 cells were then stimulated with 50 ng/ml EGF (Peprotech, Rocky Hill, N.J.) for 15 min. After treatment, cell monolayers were washed with cold PBS (Invitrogen) and immediately lysed by scrapping into 60 uL cold Cell Extraction Buffer (Invitrogen) supplemented with Complete Protease inhibitors (Roche, Indianapolis, Ind.) and PhosphoSTOP (Roche) phosphatase inhibitors.
Lysate protein concentrations were determined by BCA Assay (Pierce, Rockford, Ill.) and 50 ug of each lysate was separated by 4-12% gradient SDS-PAGE (Invitrogen), transferred to nitrocellulose membrane (Biorad, Hercules, Calif.) and probed with specific antibodies. Phospho-protein signals were quantitated using Odyssey Infrared Imaging (Li-Cor Biosciences).
To assess phosphor-EGFR signaling, blots were probed with rabbit anti-Phospho-EGFR (Y1068) and mouse total anti-EGFR antibodies. Phospho-EGFR signal was normalized to total EGFR expression for each sample. Results are indicated as % DMSO control. Normalized data was fitted using a sigmoidal curve analysis program (Graph Pad Prism version 5) with variable Hill slope to determine the EC50 values.
The compound numbers recited in Table 3 correspond to the compound numbers in Table 1.
(In general: A western blot detects proteins with antibodies after separation by electrophoresis.)

Assay [8] concerns the target EGFR delE746-A750 mutation (HCC827 cells) (Homo sapiens (Human), UniProt P00533, DEL746-750). The assay is described as follows: Phospho-EGFR signaling (immunoblotting, 1 hr) in HCC827 cells. The class given is cell-based. How it is done:
as §6, §8, §9, §10

Assay [9] relates to H1975 tumor. Put plainly: H1975 tumor in vivo study. Also noted: species or system nu/nu mice. How it is done: Female nu/nu mice were implanted with 1×10^7H1975 tumor cells in 50% Matrigel subcutaneously (0.2 ml injection volume) in the flank. Tumor measurements were recorded three times per week. Tumors were pair matched when they reached an average size of 100-150 mg. Group size was 10 mice. Test compound was administered intraperitoneal, 25 mg/kg or 50 mg/kg daily for 21 days. % Tumor inhibition was determined at 15 days and 18 days. Tumor volume was followed until tumors reached 1500 mm^3 or 60 days. Tumor inhibition value for I-1 was >80% for 25 mg/kg at both 15 and 18 days, and >90% for 50 mg/kg at both 15 and 18 days.

A value given as a limit tells only on which side of the number the result lay.

`C=CC(=O)Nc1cccc(Nc2nc(Nc3ccc(NC(C)C)cc3OC)ncc2C(F)(F)F)c1` [Compound I-5, N-(3-(2-(4-(isopropylamino)-2-methoxyphenylamino)-5-(trifluoromethyl)pyrimidin-4-ylamino)phenyl)acrylamide]: in [1], the IC50 (as a rule, the concentration that gives 50% inhibition) lay in the range of 10 to 30 nM. For the same compound, in assay [2], the IC50 is less than 1 nM and the “Ratio WT/mutant” value is greater than 20. Moreover, in assay [3], the 50% growth inhibitory concentration (GI50) (as a rule, the concentration that inhibits growth by half) fell in the range of 500 to 1000 nM. Moreover, in assay [4], the GI50 is 100 to 500 nM and the “Ratio WT/mutant (H1975)” value is greater than 1. For the same compound, in assay [5], the GI50 lay in the range of 100 to 500 nM and the “Ratio WT/mutant (HCC827)” value is greater than 5.
As to `C=CC(=O)Nc1cccc(Nc2nc(Nc3ccc(NC4CN(C(C)=O)C4)cc3OC)ncc2C(F)(F)F)c1` [Compound I-2, N-(3-(2-(4-(1-acetylazetidin-3-ylamino)-2-methoxyphenylamino)-5-(trifluoromethyl)pyrimidin-4-ylamino)phenyl)acrylamide], the IC50 is 1 to 10 nM in assay [1] and less than 1 nM in assay [2]. In addition, the “Ratio WT/mutant” value in [2] is greater than 15. The 50% growth inhibitory concentration (GI50) in [3] is greater than 1000 nM; in assay [4] it was 100 to 500 nM; in [5], 100 to 500 nM. In [4], the “Ratio WT/mutant (H1975)” value was greater than 5. In addition, in assay [5], the “Ratio WT/mutant (HCC827)” value is reported as greater than 15.
Regarding `C=CC(=O)Nc1cccc(Nc2nc(Nc3ccc(NC4CN(CCF)C4)cc3OC)ncc2C(F)(F)F)c1` [Compound I-1, N-(3-(2-(4-(1-(2-fluoroethyl)azetidin-3-ylamino)-2-methoxyphenylamino)-5-(trifluoromethyl)pyrimidin-4-ylamino)phenyl)acrylamide], the half-maximal inhibitory concentration (IC50) is 1 to 10 nM in assay [1] and less than 1 nM in [2]. Besides, the “Ratio WT/mutant” value in assay [2] was greater than 1. In addition, the concentration giving a half-maximal response (EC50) (in general, the midpoint of the concentration-response curve) in assay [6] was greater than 1000 nM; in assay [7], 10 to 100 nM; in assay [8] (HCC827 cells, 1 hr compound, phospho-EGFR (Y1068)), 100 to 500 nM. Also, the “Ratio WT/mutant (H1975)” value in assay [7] is greater than 35; in assay [4], greater than 10. Moreover, the “Ratio WT/mutant (HCC827)” value in assay [8] (signaling EC50, WT EGFR (A431) vs HCC827) was greater than 10; in assay [5], greater than 10. In addition, the values for the GI50 in [3], in [4] and in assay [5] were 500 to 1000 nM, 10 to 100 nM and 10 to 100 nM, respectively. Further, the Tumor inhibition value in assay [9] (25 mg/kg intraperitoneal daily, at 15 days) is greater than 80%; in [9] (25 mg/kg intraperitoneal daily, at 18 days) it was greater than 80%; in [9] (50 mg/kg intraperitoneal daily, at 15 days), greater than 90%; in assay [9] (50 mg/kg intraperitoneal daily, at 18 days), greater than 90%.
As to `C=CC(=O)Nc1cccc(Nc2nc(Nc3ccc(NC4CN(C(=O)OC(C)(C)C)C4)cc3OC)ncc2C(F)(F)F)c1` [Compound I-3, tert-butyl 3-(4-(4-(3-acrylamidophenylamino)-5-(trifluoromethyl)pyrimidin-2-ylamino)-3-methoxyphenylamino)azetidine-1-carboxylate], the IC50 in assay [1] is 100 to 300 nM; in assay [2], 1 to 10 nM. In [2], the “Ratio WT/mutant” value was greater than 50. In addition, the EC50 was greater than 1000 nM in assay [6] and 100 to 500 nM in [7]. Moreover, the “Ratio WT/mutant (H1975)” value in assay [7] is on record as greater than 10; in assay [4] it was greater than 5. Also, the GI50 was greater than 1000 nM in [3], 100 to 500 nM in assay [4] and 10 to 100 nM in [5]. For the same compound, the “Ratio WT/mutant (HCC827)” value in assay [5] was greater than 20.
With `C=CC(=O)Nc1cccc(Oc2nc(Nc3ccc(NC(C)C)cc3OC)ncc2Cl)c1` [Compound I-4, N-(3-(5-chloro-2-(4-(isopropylamino)-2-methoxyphenylamino)pyrimidin-4-yloxy)phenyl)acrylamide], the IC50 in assay [1] was in the range of 30 to 100 nM. In [2], the IC50 was 1 to 10 nM and the “Ratio WT/mutant” value was greater than 25. Further, the GI50 in assay [3] is greater than 1000 nM. Also, in assay [4], the GI50 was in the range of 500 to 1000 nM and the “Ratio WT/mutant (H1975)” value is recorded as greater than 1. Besides, in assay [5], the GI50 lay within 100 to 500 nM and the “Ratio WT/mutant (HCC827)” value is recorded as greater than 35.

For the origin of these results see patent US9409887B2, “Mutant-selective EGFR inhibitors and uses thereof” (Celgene Avilomics Research, Inc., priority 2010, dated 2016).
